Active and inactive are the calls of the source.
What was measured:
Insulin-degrading enzyme [1] = target: T1, Insulin-degrading enzyme (Homo sapiens, UniProt P14735); test: activators of recombinant IDE enzyme, dose response, counter-screen for IDE activator project, biochemical, fluorescence polarization (AID 588681)
T1 sequence (P14735 whole entry): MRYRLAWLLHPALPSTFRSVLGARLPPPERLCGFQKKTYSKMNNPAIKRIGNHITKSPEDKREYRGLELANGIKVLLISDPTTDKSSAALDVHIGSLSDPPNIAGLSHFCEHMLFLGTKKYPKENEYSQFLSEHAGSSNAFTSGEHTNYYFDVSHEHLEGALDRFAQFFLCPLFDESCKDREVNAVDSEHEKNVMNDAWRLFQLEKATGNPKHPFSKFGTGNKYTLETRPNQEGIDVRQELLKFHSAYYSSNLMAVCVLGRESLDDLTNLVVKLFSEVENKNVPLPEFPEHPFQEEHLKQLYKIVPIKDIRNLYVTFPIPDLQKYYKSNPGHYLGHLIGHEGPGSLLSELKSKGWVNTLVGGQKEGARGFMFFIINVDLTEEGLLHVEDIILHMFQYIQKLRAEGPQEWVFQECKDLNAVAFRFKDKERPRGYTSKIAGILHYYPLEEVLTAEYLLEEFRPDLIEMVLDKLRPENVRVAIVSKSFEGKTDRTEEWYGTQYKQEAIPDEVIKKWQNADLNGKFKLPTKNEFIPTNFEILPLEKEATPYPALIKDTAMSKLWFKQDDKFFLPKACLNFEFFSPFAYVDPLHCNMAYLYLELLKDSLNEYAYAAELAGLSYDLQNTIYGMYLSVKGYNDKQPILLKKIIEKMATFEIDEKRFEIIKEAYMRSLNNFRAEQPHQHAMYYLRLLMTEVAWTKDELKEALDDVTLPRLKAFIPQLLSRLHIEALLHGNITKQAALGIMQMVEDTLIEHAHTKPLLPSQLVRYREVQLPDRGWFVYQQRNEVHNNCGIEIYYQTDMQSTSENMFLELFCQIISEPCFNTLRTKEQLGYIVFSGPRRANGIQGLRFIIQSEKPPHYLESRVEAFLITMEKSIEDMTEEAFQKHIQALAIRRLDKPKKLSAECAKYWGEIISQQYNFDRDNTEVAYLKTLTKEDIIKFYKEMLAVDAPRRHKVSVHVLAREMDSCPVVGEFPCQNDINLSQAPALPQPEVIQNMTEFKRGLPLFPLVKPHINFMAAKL

Insulin-degrading enzyme [2] = target: T1, Insulin-degrading enzyme; test: activators of endogenous IDE in HEK cells, dose response, cell-based, fluorescence polarization (AID 588439); type: functional
HEK293 [3] = test: HEK cell cytotoxicity by LDH release, dose response, cytotoxicity control for IDE activator project, fluorescence, HEK cells (AID 588440); type: functional, cell-based; conditions: Homo sapiens;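 note: cytotoxicity by LDH release measuring loss of membrane integrity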
HEK293 [4] = test: optical interference in Abeta FP readout, dose response, artefact control for IDE activator project, biochemical, fluorescence polarization (AID 588442); type: functional, cell-based; conditions: Homo sapiens
[5] = target: T2, DNA repair protein RAD52 homolog (Homo sapiens, UniProt P43351); type: functional, biochemical
T2 sequence (P43351 whole entry): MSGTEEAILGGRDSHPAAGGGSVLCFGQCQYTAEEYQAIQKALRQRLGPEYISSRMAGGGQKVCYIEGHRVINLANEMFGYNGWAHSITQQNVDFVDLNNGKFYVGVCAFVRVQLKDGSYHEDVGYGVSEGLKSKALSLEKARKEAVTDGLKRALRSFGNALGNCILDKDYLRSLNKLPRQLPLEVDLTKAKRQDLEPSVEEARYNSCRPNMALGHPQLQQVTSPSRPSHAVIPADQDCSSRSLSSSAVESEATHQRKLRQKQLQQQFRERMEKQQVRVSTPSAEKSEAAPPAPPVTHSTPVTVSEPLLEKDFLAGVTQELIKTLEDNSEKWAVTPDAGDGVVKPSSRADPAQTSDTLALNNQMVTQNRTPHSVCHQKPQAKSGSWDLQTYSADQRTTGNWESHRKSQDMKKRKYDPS

INS1 = test: inhibitors of cytokine-induced nitrite release, dose response, cell-based, Griess absorbance, INS-1E, dry powder, set 2 (AID 488868); type: functional; conditions: Rattus norvegicus
Erythrocyte = test: FACS-based assay to assess parasite growth inhibition 96 hr Measured in Cell-Based System Using Flow Cytometry - 2126-05_Inhibitor_Dose_DryPowder_Activity. [Related pubchem assays (depositor defined):AID488774]; type: functional; conditions: Homo sapiens
[6] = FACS-based assay to assess parasite growth inhibition 48 hr Measured in Cell-Based System Using Flow Cytometry - 2126-03_Inhibitor_Dose_DryPowder_Activity. [Related pubchem assays (depositor defined):AID488774]; type: functional; conditions: Homo sapiens
[7] = A cell-based HTS for delayed death inhibitors of the malarial parasite plastid Measured in Microorganism System Using Plate Reader - 2126-02_Inhibitor_Dose_DryPowder_Activity.; type: functional, organism-based
[8] = A cell-based HTS for delayed death inhibitors of the malarial parasite plastid Measured in Microorganism System Using Plate Reader - 2126-01_Inhibitor_Dose_DryPowder_Activity.; type: functional, organism-based
[9] = ADAM10 inhibitors, peptide cleavage, dose response, biochemical, QFRET (AID 743254);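 note: ADAM10 enzyme with the DM2 quenched FRET peptide as substrate; EDANS fluorescence gain as the protease cuts the substrate; inhibitor potency against ADAM10 proteolytic activity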
[10] = target: Disintegrin and metalloproteinase domain-containing protein 17 (Homo sapiens, UniProt P78536); test: ADAM17 protease inhibitors, dose response, counter-screen for ADAM10 exosite inhibitor project, biochemical, quenched FRET substrate (AID 743253)
[11] = target: T3, Sentrin-specific protease 8 (Homo sapiens, UniProt Q96LD8); test: SENP8 protease inhibitors, SAR follow-up, biochemical, luminescence (AID 504501); type: functional
T3 sequence (Q96LD8 whole entry): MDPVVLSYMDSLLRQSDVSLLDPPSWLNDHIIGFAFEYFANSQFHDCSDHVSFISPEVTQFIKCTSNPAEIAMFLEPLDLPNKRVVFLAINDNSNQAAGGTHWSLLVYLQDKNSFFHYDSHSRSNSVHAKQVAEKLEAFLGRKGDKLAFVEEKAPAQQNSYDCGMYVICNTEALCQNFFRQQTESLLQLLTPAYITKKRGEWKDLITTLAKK

Caspase-3 [12] = target: T4, Caspase-3 (Homo sapiens, UniProt P42574); test: caspase-3 inhibitors as off-family protease, SAR follow-up, selectivity assay for SENP protease inhibitor project, biochemical, luminescence, set 2 (AID 588599); type: functional
T4 sequence (P42574 whole entry): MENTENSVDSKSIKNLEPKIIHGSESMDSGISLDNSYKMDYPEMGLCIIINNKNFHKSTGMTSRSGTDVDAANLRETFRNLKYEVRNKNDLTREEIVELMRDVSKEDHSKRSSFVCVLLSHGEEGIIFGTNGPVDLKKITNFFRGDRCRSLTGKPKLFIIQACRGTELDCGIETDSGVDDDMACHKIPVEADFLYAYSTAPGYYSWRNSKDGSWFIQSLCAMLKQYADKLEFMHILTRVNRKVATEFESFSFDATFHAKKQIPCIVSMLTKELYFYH

[13] = target: T3, Sentrin-specific protease 8; test: SENP8 protease inhibitors, SAR follow-up, biochemical, luminescence, set 2 (AID 588601); type: functional
Caspase-3 [14] = target: T4, Caspase-3; test: SAR Analysis of small molecule inhibitors of Sentrin-specific proteases (SENPs) using a Caspase-3 Selectivity assay. [Related pubchem assays (depositor defined):AID2540, AID2599, AID434973, AID489001]; type: functional
[15] = target: T5, Sentrin-specific protease 7 (Homo sapiens, UniProt Q9BQF6); test: SENP7 protease inhibitors, SAR follow-up, biochemical, luminescence, set 2 (AID 588600); type: functional
T5 sequence (Q9BQF6 whole entry): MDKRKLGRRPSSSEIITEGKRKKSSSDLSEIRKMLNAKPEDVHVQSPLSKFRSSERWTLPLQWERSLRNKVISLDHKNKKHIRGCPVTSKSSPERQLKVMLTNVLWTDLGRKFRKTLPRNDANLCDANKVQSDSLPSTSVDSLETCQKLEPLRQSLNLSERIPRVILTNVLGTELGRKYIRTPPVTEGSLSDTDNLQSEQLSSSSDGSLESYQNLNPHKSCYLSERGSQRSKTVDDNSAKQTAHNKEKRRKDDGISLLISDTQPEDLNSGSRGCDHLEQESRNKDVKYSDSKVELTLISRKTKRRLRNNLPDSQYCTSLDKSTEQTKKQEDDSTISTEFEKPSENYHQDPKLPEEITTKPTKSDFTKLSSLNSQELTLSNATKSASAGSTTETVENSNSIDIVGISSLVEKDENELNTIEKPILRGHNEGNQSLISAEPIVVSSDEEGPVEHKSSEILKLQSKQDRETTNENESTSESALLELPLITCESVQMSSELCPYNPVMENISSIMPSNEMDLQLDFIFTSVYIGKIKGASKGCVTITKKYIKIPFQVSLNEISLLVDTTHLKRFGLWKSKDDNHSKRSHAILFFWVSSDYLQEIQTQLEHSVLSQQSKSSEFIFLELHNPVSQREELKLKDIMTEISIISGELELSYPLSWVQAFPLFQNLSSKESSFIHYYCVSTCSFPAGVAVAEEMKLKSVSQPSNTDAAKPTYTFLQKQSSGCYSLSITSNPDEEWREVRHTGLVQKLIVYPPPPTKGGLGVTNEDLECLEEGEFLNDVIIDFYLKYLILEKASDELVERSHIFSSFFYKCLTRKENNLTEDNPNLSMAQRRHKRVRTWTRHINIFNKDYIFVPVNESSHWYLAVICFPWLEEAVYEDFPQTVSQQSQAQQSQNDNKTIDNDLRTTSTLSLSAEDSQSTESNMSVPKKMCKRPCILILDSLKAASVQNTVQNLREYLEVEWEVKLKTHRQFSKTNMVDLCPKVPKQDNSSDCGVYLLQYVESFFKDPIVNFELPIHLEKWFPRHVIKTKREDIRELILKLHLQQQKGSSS

[16] = target: T6, Sentrin-specific protease 6 (Homo sapiens, UniProt Q9GZR1); test: SAR Analysis of small molecule inhibitors of Sentrin-specific protease 6 (SENP6) using a Luminescent assay. [Related pubchem assays (depositor defined):AID2582, AID2599]; type: functional
T6 sequence (Q9GZR1 whole entry): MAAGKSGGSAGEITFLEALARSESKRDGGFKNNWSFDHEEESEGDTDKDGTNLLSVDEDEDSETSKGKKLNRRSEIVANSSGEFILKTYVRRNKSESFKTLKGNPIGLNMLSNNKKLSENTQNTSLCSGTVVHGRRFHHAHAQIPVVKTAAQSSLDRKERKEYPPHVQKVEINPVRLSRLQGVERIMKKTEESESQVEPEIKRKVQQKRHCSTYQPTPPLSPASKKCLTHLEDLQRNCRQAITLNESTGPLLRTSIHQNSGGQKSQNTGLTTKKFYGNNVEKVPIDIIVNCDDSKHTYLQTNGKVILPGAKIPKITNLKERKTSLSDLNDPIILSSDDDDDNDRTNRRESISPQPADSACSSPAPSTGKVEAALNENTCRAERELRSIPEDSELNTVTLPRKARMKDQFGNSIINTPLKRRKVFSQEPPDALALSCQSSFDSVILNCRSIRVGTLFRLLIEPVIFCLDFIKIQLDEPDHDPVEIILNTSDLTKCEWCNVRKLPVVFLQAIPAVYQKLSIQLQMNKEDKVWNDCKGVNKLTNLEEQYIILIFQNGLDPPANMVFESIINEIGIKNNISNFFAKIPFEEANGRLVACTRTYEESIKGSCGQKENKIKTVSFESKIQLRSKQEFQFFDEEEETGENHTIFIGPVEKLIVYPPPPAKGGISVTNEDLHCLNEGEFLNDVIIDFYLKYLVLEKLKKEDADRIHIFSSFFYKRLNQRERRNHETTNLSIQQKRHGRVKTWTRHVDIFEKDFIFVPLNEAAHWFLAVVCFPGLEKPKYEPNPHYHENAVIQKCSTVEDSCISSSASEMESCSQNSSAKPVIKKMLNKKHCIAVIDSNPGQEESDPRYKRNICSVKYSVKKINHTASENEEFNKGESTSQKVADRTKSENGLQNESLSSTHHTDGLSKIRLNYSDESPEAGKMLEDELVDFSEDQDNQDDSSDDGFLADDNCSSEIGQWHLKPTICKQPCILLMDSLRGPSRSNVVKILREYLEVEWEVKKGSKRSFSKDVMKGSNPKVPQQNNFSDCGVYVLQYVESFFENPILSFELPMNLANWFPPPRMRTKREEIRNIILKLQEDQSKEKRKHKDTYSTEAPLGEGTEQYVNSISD

[17] = target: T6, Sentrin-specific protease 6; test: SENP6 protease inhibitors, SAR follow-up, biochemical, luminescence, set 2 (AID 588598); type: functional
[18] = target: T5, Sentrin-specific protease 7; test: SENP7 protease inhibitors, SAR follow-up, biochemical, luminescence (AID 504497); type: functional

Chain of Disintegrin and metalloproteinase domain-containing protein 17 (P78536 whole entry, the tested form may be a part): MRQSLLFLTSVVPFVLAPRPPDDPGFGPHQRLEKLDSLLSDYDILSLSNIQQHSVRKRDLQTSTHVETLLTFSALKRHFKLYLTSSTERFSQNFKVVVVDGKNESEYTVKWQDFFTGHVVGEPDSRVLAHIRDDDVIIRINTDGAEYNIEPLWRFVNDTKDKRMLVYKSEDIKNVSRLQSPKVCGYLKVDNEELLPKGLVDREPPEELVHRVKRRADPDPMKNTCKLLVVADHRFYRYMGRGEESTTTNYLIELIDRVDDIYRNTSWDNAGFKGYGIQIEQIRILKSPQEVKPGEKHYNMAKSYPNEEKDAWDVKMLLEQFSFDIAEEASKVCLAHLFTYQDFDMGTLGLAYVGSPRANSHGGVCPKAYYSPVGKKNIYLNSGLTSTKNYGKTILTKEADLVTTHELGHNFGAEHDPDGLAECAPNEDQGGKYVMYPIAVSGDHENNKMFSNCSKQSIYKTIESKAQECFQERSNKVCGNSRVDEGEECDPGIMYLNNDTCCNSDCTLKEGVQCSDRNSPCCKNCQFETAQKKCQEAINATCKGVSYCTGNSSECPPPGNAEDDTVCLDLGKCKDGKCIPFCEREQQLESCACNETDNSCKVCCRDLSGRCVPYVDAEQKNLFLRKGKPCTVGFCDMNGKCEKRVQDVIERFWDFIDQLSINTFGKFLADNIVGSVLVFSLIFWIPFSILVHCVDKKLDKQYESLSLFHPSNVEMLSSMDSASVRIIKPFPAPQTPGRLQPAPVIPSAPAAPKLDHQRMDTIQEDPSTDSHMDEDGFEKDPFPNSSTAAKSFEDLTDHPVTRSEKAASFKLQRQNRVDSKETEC

O=c1c2c(-c3ccccc3)csc2nc2c3ccccc3c(NCCN3CCOCC3)nn12
EC50 (Insulin-degrading enzyme [1]): 25.2 µM (inactive)
EC50 (Insulin-degrading enzyme [2]): > 54.7 µM (inactive)
IC50 (HEK293 [3]): 10.6 µM (inactive)
EC50 (HEK293 [4]): > 55.9 µM (inactive)
AC50 [5]: 1.58 µM (active)

COc1ccc(S(=O)(=O)N(C)C[C@@H]2Oc3ccc(NC(=O)Nc4cccc5ccccc45)cc3C(=O)N([C@@H](C)CO)C[C@H]2C)cc1
AC50 (INS1): 43.8 µM (active)

C[C@@H]1CN([C@@H](C)COC(=O)C(C)(C)C)C(=O)c2cc(NC(=O)Nc3ccccc3)ccc2O[C@@H](C)CCCCO[C@H]1CN(C)S(=O)(=O)c1ccc(F)cc1
AC50 (Erythrocyte): 0.005 µM (active)
AC50 [6]: 0.00425 µM (active)
AC50 [7]: 0.00877 µM (active)
AC50 [8]: 0.00539 µM (active)
IC50 [9]: > 69.5 µM (inactive)
IC50 [10]: > 69.5 µM (inactive)

O=C(Nc1nc2ccccc2s1)c1sccc1Cl
IC50 [11]: 0.71 µM (active)
IC50 (Caspase-3 [12]): 0.954 µM (active)
IC50 [13]: 1.22 µM (active)
IC50 (Caspase-3 [14]): 0.54 µM (active)
IC50 [15]: 1.21 µM (active)
IC50 [16]: 0.75 µM (active)
IC50 [17]: 1.19 µM (active)
IC50 [18]: 0.89 µM (active)
